The values below come from patent US20230151334A1, “CULTURE PLATFORMS, METHODS, AND USES THEREOF” (HELSINGIN YLIOPISTO, priority 2020, published 2023).

For test [1], the system named is PDEC-N and PDEC-BC. Put plainly: Immunofluorescent staining of nuclear ERα and phosphorylated p38 in PDEC-N and PDEC-BC after compound exposure. It is filed as cell-based, human. As to the method: Fresh tissue was obtained from elective breast cancer surgeries. Tissue was collected from both the tumor tissue and the area surrounding the tumor (non-tumor samples). Also tissue from reduction mammoplasties (RMP) were collected. From every tumor, one portion was taken for immunohistochemical analysis (IHC), for DNA/RNA/protein isolation, and the rest was used for isolation of fragments and 3D culture. For isolation of human breast cancer fragments, breast cancer tissue was incubated with 0.2% collagenase in MammoCult media produced by StemCell technologies (supplemented with 4 ug/mL heparin, MammoCult proliferation supplements, 0.1 µg/mL 10.000 UI/mL PenStrep, Amphotericin, and 25 µg/mL Gentamycin) with gentle shaking at 37° C. overnight. The resulting cell suspension was then centrifuged at 1,300 rpm for 3 min, washed once with MammoCult and plated in 8-chamber plates. Matrices used for the cultures were: Agarose (UltraPure™ Low Melting Point Agarose, Invitrogen™), Collagen (Collagen I Rat tail, Corning), Matrigel (Matrigel Basement Matrix Growth Factor Reduced, 8.8 mg/mL, Corning), Egg white, Ovomucine, GrowDex (15 mg/mL, UPM-Kymmene OYj), Alginate (Alginic acid sodium salt, Aldrich) and Alginate-RGD (Sodium Alginate MVG GRGDSP, NovaMatrix, NOVATACH). Ovomucin was isolated from chicken egg whites according to an established protocol (Omana and Wu, 2009, J Agric Food Chem 57, 3596-3603). Briefly, ovomucin was isolated from egg white using isoelectric precipitation in the presence of 100 mM NaCl solution at pH adjusted to 6.0. The resulting mixture was stored overnight at 4° C. in a refridgerator followed by centrifugation. The precipitate was re-suspended in 500 mM NaCl solution at pH 6.0 again and stored overnight at 4° C. The dispersion was centrifuged, and the precipitate was purified by dialyzing against water overnight. Dialysed sample was freeze-dried under the vacuum. For gelation, the solid ovomucin powder was dissolved in MilliQ (18 W) water using Ultra-Turrax (IKA) mixer.
(§1) For immunofluorescent analysis 3D cultured breast cancer fragments were fixed with 4% paraformaldehyde for 20 min at room temperature and washed three times with PBS. The tissue fragments were permeabilized with 0.25% Triton X-100 in PBS for 10 min at RT and blocked in IF buffer (7.7 mM NaN3, 0.1% BSA, 0.2% Triton X-100, and 0.05% Tween 20 in PBS) supplemented with 10% (vol/vol) normal goat serum for1-1.5 h. The fragments were then incubated with the primary antibody diluted in blocking solution overnight at +4° C. Following incubation, fragments were washed three times with IF buffer (20 min each wash) and then incubated with the appropriate Alexa Fluor secondary antibody diluted in IF buffer with 10% goat serum. After 60 min of incubation at RT, the fragments were washed with IF buffer as before and the nuclei were counterstained with Hoechst 33258 (Sigma). Slides containing tissue fragments were mounted with ImmuMount reagent. Images of the structures were acquired using a Leica TCS SP8 CARS confocal microscope using a HC PL APO CS2 40x objective.
(§2) We observed stress-responsive mitogen-activated protein kinase (MAPKs) pathway activated in the in LMx-Ag, compared to LMx-Al. The nuclear expression of phosphorylated p38 was also visible in the MMECs cultured in LMx-Ag. To confirm the role of stress-responsive mitogen-activated protein kinases in the ERα activation, we used anisomycin to directly activate the pathway in TNBC cell line, DU4475. […] We used inhibitor of the methyltransferase EZH2, which mediates the silencing of ERα and observed the retained expression of ERα (FIG. 4D).

Test [2] relates to TNBC cell line DU4475. Kind of test: Immunofluorescent staining of nuclear ERα in TNBC cell line DU4475 after EZH2 inhibitor. The following applies: TNBC cell line DU4475 after exposure to compound. It is filed as cell-based.
Test [3] has as its system MMECs. Put plainly: Immunofluorescent staining of nuclear ERα in MMECs after compound exposure. It is filed as cell-based, mouse. The following applies: MMECs after exposure to compound. The method, then:
Mouse primary mammary epithelial fragments were isolated with 0.2% collagenase for 1 h at +37° C. Media used for the mouse tissue was DMEM/F12 (Thermo Fisher Scientific) supplemented with 5% horse serum, 5 ug/mL Insulin, 1 µg/mL hydrocortisone, 10 ng/mL EGF, and 100 U PenStrep.
as §1, with “objective. […]” for “objective.”

The subject of test [4] is TNBC cell line, DU4475. Put plainly: Western blot of ERα in TNBC cell line after anisomycin treatment. It is filed as cell-based.
Text: as §2
On the technique in general: Immunoblotting shows a protein as a band on a membrane.

The test system of test [5] is ERα downstream targets PGR and GREB1 in PDEC-BC. Put plainly: QRT-PCR of ERα target genes in PDEC-BC cultures after tamoxifen/antiestrogen treatment. It is filed as cell-based, human. As to the method: Instead of anisomycin, the stress activated protein kinase pathway is also activated by multiple other factors e.g oxidative stress. We observed, if the PDEC cultures were performed under a higher oxygen concentration, such as in air-liquid interface, the functional ERα was preserved together with the activation of p38 (FIG. 5A). We treated these PDEC-BC with antiestrogens and observed a suppression in ERα downstream targets PGR and GREB1 (FIG. 5B).
We exposed the human PDEC-N and PDEC-BC cultures to the additional compressive forces with the magnet mediated mechanical compression (FIG. 5C). […] We treated the compressed PDEC-BC with tamoxifen and observed a suppression in ERα downstream targets PGR and GREB1 (FIG. 5E).

[6] abbreviates: PDEC-BC (PDEC-T) after exposure to compound.
[7] abbreviates: PDEC-N after exposure to compound.
Setting [8] is: PDEC-BC exposed to magnet-mediated compression.

“Also recorded” adds a separate entry of the source.

Turning to `CC[C@H](C)n1cc(C)c2c(C(=O)NCc3c(C)cc(C)[nH]c3=O)cc(-c3ccc(N4CCNCC4)nc3)cc21` [GSK-126], the “nuclear ERα (immunofluorescent staining)” value in test [1] (setting [6]), in test [1] (setting [7]), in test [2] and in test [3] was “activation of nuclear ERα” in each case.

With `COc1ccc(C[C@H]2NC[C@H](O)[C@H]2OC(C)=O)cc1` [anisomycin], the “nuclear ERα (immunofluorescent staining)” value in test [1] (setting [6]), in test [1] (setting [7]) and in test [3] was “activation of nuclear ERα” throughout. Also, the “phosphorylated p38 (immunofluorescent staining)” value in test [1] (PDEC-BC after exposure to compound) and in test [1] (setting [7]) was “activation of phosphorylated-38” in each case. Moreover, the “ERα expression (Western blot)” value in test [4] is reported as “able to activate the ERα expression; also recorded: upregulation of ERα”.

Turning to `CC/C(=C(\c1ccccc1)c1ccc(OCCN(C)C)cc1)c1ccccc1` [tamoxifen], in test [5] (setting [8]), the GREB1 expression entry is reported as “suppression”. The “PGR expression (QRT-PCR)” value in test [5] (setting [8]) is reported as “suppression”; in test [5] (PDEC-BC exposed to magnet-mediated compression, listed as Tamoxifen) it was “suppresses”; in test [5] (air-liquid interface (ALI) cultured PDEC-BC, o/n treatment), “downregulation”.
